In ChEMBL document CHEMBL1157075, “Antiangiogenic metabolites from a marine-derived fungus, Hypocrea vinosa” (J Nat Prod, 2010) one finds Activity, IC50 and inhibition data, which are given here for nine molecules.

Active and inactive are the calls of the source. No cut-off for these calls is given here.

The subject of data set [1] is P388. Briefly: Antitumor activity against mouse P388 cells xenografted in mouse at 20 mg/kg. Format: functional, organism-based. More on the design: dose 20 mg/kg.
Data set [2] has as its system P388. Briefly: Antitumor activity against mouse P388 cells xenografted in mouse. Format: functional.
Data set [3] is filed under the species Mus musculus. Briefly: Toxicity in mouse assessed as reduction of body weight. Format: organism-based. Particulars: in vivo.
Data set [4] is described as follows: Inhibition of protein tyrosine kinase in HUVEC lysates after 2 hrs. Format: cell-based, Homo sapiens.
The test system of data set [5] is HUVEC. In words: Inhibition of protein tyrosine kinase in HUVEC lysates at 10 ug/ml after 2 hrs. Format: cell-based. Particulars: Homo sapiens.
Data set [6] concerns HUVEC. In words: Inhibition of VEGF-induced HUVEC migration at 0.1 ug/ml after 22 hrs by microscopy. Format: functional. Particulars: Homo sapiens.
The subject of data set [7] is HUVEC. In words: Inhibition of protein tyrosine kinase in HUVEC lysates at 1 ug/ml after 2 hrs. Format: cell-based. Particulars: Homo sapiens.
Data set [8] has as its system NHDF. In words: Antiangiogenic activity against NHDF assessed as inhibition VEGF-stimulated tubule formation at 10 ug/ml after 11 days by microscopy. Format: functional, cell-based. Conditions: Homo sapiens.
In data set [9] the test system is HUVEC. In words: Antiproliferative activity against HUVEC after 72 hrs by MTT assay. Particulars: Homo sapiens. Format: cell-based.
In data set [10] the test system is HUVEC. Briefly: Inhibition of protein tyrosine kinase in HUVEC lysates at 100 ug/ml after 2 hrs. Particulars: Homo sapiens. Format: cell-based.
Data set [11] relates to HUVEC. Briefly: Inhibition of VEGF-induced HUVEC migration after 22 hrs by microscopy. Format: functional, cell-based. Particulars: Homo sapiens.
Data set [12] has as its system HUVEC. In words: Antiangiogenic activity against HUVEC assessed as inhibition VEGF-stimulated tubule formation at 10 ug/ml after 11 days by microscopy. Conditions: Homo sapiens. Format: functional, cell-based.
In data set [13] the test system is HUVEC. Briefly: Inhibition of VEGF-induced HUVEC migration at 1 ug/ml after 22 hrs by microscopy. Format: functional. Particulars: Homo sapiens.
Data set [14] concerns HUVEC. In words: Inhibition of VEGF-induced HUVEC migration at 10 ug/ml after 22 hrs by microscopy. Format: functional. Particulars: Homo sapiens.
Another data set concerns HeLa. Briefly: Cytotoxicity against human HeLa cells after 72 hrs by WST8 assay. Format: functional, cell-based.
In data set [15] the test system is NHDF. In words: Cytotoxicity against NHDF after 72 hrs by WST8 assay. Format: cell-based. Conditions: Homo sapiens.
The test system of data set [16] is Mus musculus. In words: Toxicity in mouse at 60 mg/kg. More on the design: dose 60 mg/kg. Particulars: in vivo. Format: organism-based.

Regarding `C[C@H]1Oc2cc3c(-c4c(O)cc(O)c5c(O)c6c(cc45)O[C@H](C)[C@@H](C)C6=O)c(O)cc(O)c3c(O)c2C(=O)[C@@H]1C`, in the data set with P388 [1], the outcome was Active.

In the case of `Cc1oc2cc3c(-c4c(O)cc(O)c5c(O)c6c(cc45)O[C@@H](C)[C@H](C)C6=O)c(O)cc(O)c3c(O)c2c(=O)c1C` [CHAETOCHROMIN D], in the data set on P388 [2], the outcome was Active. In the data set filed under Mus musculus [3], the Activity entry was “Toxic”.

As to `CC(=O)Cc1cc(=O)c2c(O)c3c(O)cc(O)c(-c4c(O)cc(O)c5c(O)c6c(=O)cc(C)oc6cc45)c3cc2o1` [HYPOCHROMIN B], the results for the IC50 (in [4]; with HUVEC [9]; with HUVEC [11]) were 18 µM, 13.1 µM and 1.51 µM, respectively. Besides, the results for the inhibition with HUVEC [5], with HUVEC [7] and with HUVEC [10] were 50%, 12.4% and 72.4%, respectively. In the data set on HUVEC [6], this molecule showed an inhibition at 0.1 µg/mL of 33.3%. Also, the inhibition entry in the data set on NHDF [8] and with HUVEC [12] was “Active” in each case. In addition, in the data set on HUVEC [13], the inhibition at 1 µg/mL was found to be 53.3%. Testing at 10 µg/mL with HUVEC [14] gave an inhibition of 95.6%.

On to `CC(=O)Cc1cc(=O)c2c(O)c3c(O)cc(O)c(-c4c(O)cc(O)c5c(O)c6c(=O)cc(CC(C)=O)oc6cc45)c3cc2o1`, for which the IC50 in [4] is 42.1 µM; with HeLa it was 209 µM; in the data set on HUVEC [9], 17.4 µM; in the data set on HUVEC [11], 1.09 µM; with NHDF [15], above 500 µM. Also, the inhibition in the data set with HUVEC [5] worked out at 38.3%; in the data set on HUVEC [7], 11%; with HUVEC [10], 66.2%. At 0.1 µg/mL the inhibition with HUVEC [6] was 20%. Besides, the inhibition entry with NHDF [8] and in the data set with HUVEC [12] was “Active” each time. In addition, the inhibition at 1 µg/mL in the data set on HUVEC [13] came to 57.8%. Also, the inhibition at 10 µg/mL in the data set with HUVEC [14] was found to be 86.7%.

Turning to `C[C@@H]1Oc2cc3c(-c4c(O)cc(O)c5c(O)c6c(cc45)O[C@H](C)[C@@H](C)C6=O)c(O)cc(O)c3c(O)c2C(=O)[C@@H]1C` [CHAETOCHROMIN B], the result in the data set with P388 [2] was Active. Besides, in the data set filed under Mus musculus [3], the Activity result is listed as “Toxic”.

As to `CC1CC(=O)c2c(cc3c(-c4c(O)cc(O)c5c(O)c6c(cc45)O[C@H](C)[C@@H](C)C6=O)c(O)cc(O)c3c2O)O1` (stereo not given in full) [CHAETOCHROMIN C], in the data set on P388 [2], the result was Active. For the same molecule, in the data set listed under Mus musculus [3], the Activity entry is on record as “Toxic”.

Take `Cc1cc(=O)c2c(O)c3c(O)cc(O)c(-c4c(O)cc(O)c5c(O)c6c(=O)cc(C)oc6cc45)c3cc2o1` [USTILAGINOIDIN A]: in the data set with Mus musculus [16], the Activity result was “Toxic”.

For the molecule `CC(=O)Cc1cc(=O)c2c(O)c3c(O)cc(O)c(-c4c(O)cc(O)c5c(O)c6c(=O)cc(CC(C)O)oc6cc45)c3cc2o1` (stereo not given) [HYPOCHROMIN A], the results for the IC50 (in data set [4]; in the data set on HUVEC [9]; in the data set with HUVEC [11]) were 58.7 µM, 50 µM and 0.87 µM, respectively. Also, the inhibition in the data set on HUVEC [5] turned out to be 21.9%; in the data set with HUVEC [7] it was 0%; in the data set with HUVEC [10], 73.4%. This molecule registered an inhibition at 0.1 µg/mL with HUVEC [6] of 28.9%. For the same molecule, the inhibition entry in the data set with NHDF [8] and in the data set with HUVEC [12] was “Active” throughout. Besides, the inhibition at 1 µg/mL with HUVEC [13] was determined as 62.2%. The molecule further showed an inhibition at 10 µg/mL with HUVEC [14] of 100%.

Take `Cc1cc(=O)c2c(O)c3c(O)cc(O)c(-c4c(O)cc(O)c5c(O)c6c(cc45)OC(C)CC6=O)c3cc2o1` (stereo not given) [USTILAGINOIDIN G]: the outcome with P388 [2] was Active. For the same molecule, the Activity entry in the data set filed under Mus musculus [3] was “Toxic”.
